Tests used:
[1] = tested on: isolated rat brain synaptosomes; assay: 6-OHDA-induced neurotoxicity in isolated rat brain synaptosomes; format: cell-based; conditions: for preserved GSH levels in synaptosomes / viability at 100 µM: 100 µM compound + 150 µM 6-OHDA; for preserved GSH levels in synaptosomes: compared to the 6-OHDA group; for viability at 100 µM: Rattus norvegicus, compared to 6-OHDA alone, read-out: preserved synaptosomal viability
Protocol: Synaptosomes and mitochondria were isolated by subcellular fractionation using a Percoll gradient, following the method described by Tauplin et al. and Sims et al.. Brain homogenate was prepared and centrifuged at 1000× g for 5 min at 4 °C. The supernatants were collected and centrifuged again at 1000× g for 5 min at 4 °C. The supernatants from both centrifugations were combined and distributed into four tubes. These tubes were then centrifuged at 10,000× g for 20 min at 4 °C three times. The final two centrifugations were performed to purify the synaptosomes and mitochondria.
The isolation process involves using a colloidal silicon solution, specifically Percoll. First, a 90% stock solution of Percoll is prepared. Next, Percoll solutions at concentrations of 16% and 10% are prepared, with 4 mL of each solution placed into six separate test tubes. To the precipitate from the final centrifugation step, 7.5% Percoll (derived from the 90% stock solution) is added. The tubes are then centrifuged at 15,000× g for 20 min at 4 °C. This procedure effectively isolates synaptosomes and mitochondria. After centrifugation, three distinct layers form in the tubes. The bottom layer contains mitochondria, the top layer contains lipids, and the middle layer—located at the 16% to 10% Percoll interface—contains synaptosomes. The corresponding layer from each tube is carefully removed using a glass Pasteur pipette and combined into one. Buffer B with glucose is then added to the mixture, which is centrifuged at 10,000 × g for 20 min at 4 °C, allowing the isolation buffer to be exchanged with the incubation buffer. After centrifugation, the pellet containing the synaptosomes is resuspended in Buffer B with glucose. Synaptosomes and mitochondria were incubated with the test substances at a concentration of 100 µM for 1 h.
This in vitro model mimics the neurodegenerative processes primarily observed in Parkinson’s disease (PD). The metabolism of 6-OHDA produces reactive quinones (p-quinone), which, in turn, generate reactive oxygen species (ROS). These reactive metabolites and ROS cause damage to both pre- and post-synaptic membranes, ultimately leading to neuronal cell damage. In this study, synaptosomes were incubated with 6-OHDA (150 μM) for 1 h to establish the model.
After a 1-h incubation with the substances and toxic agent, synaptosomes were centrifuged in a microcentrifuge at 15,000× g for 1 min. The pellet was gently mixed with Buffer B + glucose, and the supernatant containing 6-OHDA was discarded to prevent oxidation of 3-(4,5-dimethylthiazol-2-yl)-2,5-diphenyltetrazolium bromide, a tetrazole (MTT). The synaptosomes were centrifuged again at 15,000× g for 1 min. After the second wash, Buffer B + glucose was added to the pellet. Then, 60 µL of MTT solution was added to the “washed” synaptosomes. The plates were incubated with the MTT solution at 37 °C for 10 min. After incubation, the samples were centrifuged at 15,000× g for 2 min. The excess liquid was removed, and a DMSO solution was used to dissolve the formed formazan crystals. The amount of formazan was then measured spectrophotometrically at λ = 580 nm.
Following protein precipitation with trichloroacetic acid, the thiol groups in the supernatant were measured using DTNB, which produces a yellow-colored compound that absorbs light at λ = 412 nm. After incubation, synaptosomes were centrifuged at 4000× g for 3 min. The supernatant was removed, and the pellet was collected for GSH determination. The pellet was treated with 5% trichloroacetic acid and left on ice for 10 min. It was then centrifuged at 8000× g for 10 min at 2 °C. The supernatant was collected for GSH determination and frozen at −20 °C. Immediately before measurement, the samples were neutralized with 5N NaOH [50].

[2] = tested on: isolated rat brain microsomes; assay: In vitro toxicity (prooxidant effect, MDA) on isolated rat brain microsomes; format: biochemical; conditions: 100 µM, vs untreated control microsomes
Protocol: (§1) The brain was homogenized in 9 volumes of 0.1 M Tris buffer containing 0.1 mM dithiothreitol, 0.1 mM phenylmethylsulfonyl fluoride, 0.2 mM EDTA, 1.15% KCl, and 20% (v/v) glycerol (pH 7.4). The resulting homogenate was centrifuged twice at 17,000× g for 30 min. The supernatants from both centrifugation steps were combined and centrifuged twice at 100,000× g for 1 h. The pellet was then frozen in 0.1 M Tris buffer.
(§2) After incubating the microsomes with the substances and toxic agent, the reaction was stopped by adding 0.5 mL of 20% trichloroacetic acid, followed by 0.5 mL of 0.67% thiobarbituric acid. The reaction formed a colored complex between the malondialdehyde produced and thiobarbituric acid. The amount of malondialdehyde (MDA) was measured spectrophotometrically at 535 nm, using a molar extinction coefficient of 1.56 × 10^5 M^−1 cm^−1 for the calculation.

[3] = tested on: isolated rat brain microsomes; assay: Non-enzyme (Fe2+/AA) lipid peroxidation in isolated rat brain microsomes; format: biochemical; conditions: 100 µM compound co-incubated with Fe2+/AA, compared to the Fe2+/AA group
Protocol: as §1
Non-enzyme-induced lipid peroxidation was induced with 20 μM ferrous sulfate solution and 0.5 mM ascorbic acid solution [54].
as §2

[4] = tested on: SH-SY5Y cells; assay: In vitro cytotoxicity in neuroblastoma cell line SH-SY5Y (MTT); format: cell-based; conditions: Homo sapiens, 24 h treatment, 0.1-500 µM, read-out: IC50 (cell viability)
Protocol: (§3) The neuroblastoma cell line SH-SY5Y was acquired from Sigma-Aldrich (ACACC cell lines). They were cultured in Roswell Park Memorial Institute 1640 (RPMI) cell medium supplemented with 10% heat-inactivated fetal bovine serum (FBS) and 2 mM L-glutamine. The cells were maintained at 37 °C in an atmosphere containing 5% CO2 in a humidified incubator.
SH-SY5Y cells were seeded in 96-well plates at a density of 2.5 × 10^4 cells/well. The plates were incubated for 24 h to ensure proper attachment. Cell viability assays were performed after treatment with the test compounds at concentrations of 0.1, 1, 5, 10, 50, 100, 250, and 500 μM, according to the protocol of Mosmann (1984). Each compound was tested in 6 wells. Following the treatment for 24 h, a solution of (3-(4,5-dimethylthiazol-2-yl)-2,5-diphenyltetrazolium bromide) MTT at a concentration of 5 mg/mL was prepared and briefly vortexed. The culture medium was aspirated and replaced with 100 μL of MTT solution in each well. The plates were then incubated for 3 h. After incubation, the formazan crystals were dissolved using 100 μL dimethylsulphoxide (DMSO), and the absorbance was measured at 570 nm (690 nm for the background absorbance) using a multiple reader Synergy 2 (BioTek Instruments, Inc., Highland Park, Winooski, VT, USA).

[5] = tested on: SH-SY5Y cells; assay: H2O2-induced oxidative stress model in neuroblastoma SH-SY5Y cells; format: cell-based, human; conditions: H2O2 1 mM 10 min
Protocol: as §3
In the oxidative stress model, SH-SY5Y cells (3.5 × 10^4 cells/well) were exposed to 1 mM H2O2 for 10 min. The cells were pre-treated for 1.5 h with the test compounds (0.1, 1, 5, 10, 20, and 50 µM). Subsequently, a H2O2 solution was added. Cell viability was assessed after 24 h by the MTT-dye reduction assay, as described above.
The results of the experiments performed on isolated brain synaptosomes, mitochondria, and microsomes were statistically processed using the ‘MEDCALC’ program using the non-parametric Mann–Whitney method at significance levels of p < 0.05, p < 0.01, and p < 0.001. Statistical analyses with the SH-SY5Y cell line were conducted on GraphPad Prism software (version 8, GraphPad Software, La Jolla, CA, USA). The significance of the data was assessed using one-way analysis of variance (ANOVA), followed by Dunnet’s test for post hoc multiple comparisons, to evaluate statistical differences. Values of * p ≤ 0.05, ** p ≤ 0.01, and *** p ≤ 0.001 were considered statistically significant. Cytoprotecting data were normalized as a percentage of the H2O2-treated control (defined as 0% viability). Statistical analysis was performed to compare the different groups of compounds. Statistical significance was determined using the Holm–Sidak method, with alpha = 0.05. Each row was analyzed individually, without assuming a consistent SD.

[6] = tested on: isolated brain mitochondria; assay: t-BuOOH-induced oxidative stress in brain mitochondria; conditions: 100 µM compound + t-BuOOH, compared to t-BuOOH alone
[7] = 150 µM applied alone, vs untreated synaptosomes

| SMILES | decrease of MDA production in microsomes [3] [%] | decrease in synaptosomal viability by toxic agent alone [1, 7] [%] | reduction in GSH levels by toxic agent alone [1, 7] [%] | increase in MDA formation in microsomes [2] [%] | preserved GSH levels in synaptosomes [1] [%] | viability at 100 µM [1] [%] | IC50 [4] [µM] | protective effect (neuroprotection) ([5]; 5 µM pre-treatment 1.5 h) [%] | protective effect (neuroprotection) ([5]; 10 µM pre-treatment 1.5 h) [%] | reduction of MDA production in mitochondria [6] [%] | protective effect (neuroprotection) ([5]; 20 µM pre-treatment 1.5 h) [%] | protective effect (neuroprotection) ([5]; 50 µM pre-treatment 1.5 h) [%] |
| --- | --- | --- | --- | --- | --- | --- | --- | --- | --- | --- | --- | --- |
| NCCc1cc(O)c(O)cc1O [6-OHDA, 6-hydroxydopamine, reference compound] | – | 55 | 50 | – | – | – | – | – | – | – | – | – |
| CCOC(=O)c1cc(-c2ccc(Br)cc2)n(C(Cc2c[nH]c3ccccc23)C(=O)N/N=C/c2cc(OC)c(O)c(OC)c2)c1C (centres unmarked) [compound 7] | 38 | – | – | 29 | 70 | 73 | > 500 | – | – | – | – | – |
| CCOC(=O)c1cc(-c2ccc(Br)cc2)n(C(Cc2c[nH]c3ccccc23)C(=O)N/N=C/c2ccccc2O)c1C (centres unmarked) [compound 12] | 40 | – | – | 35 | 80 | 82 | > 500 | 48 | 53 | – | 50 | 32 |
| CCOC(=O)c1cc(-c2ccc(Br)cc2)n(C(Cc2c[nH]c3ccccc23)C(=O)N/N=C/c2c3ccccc3cc3ccccc23)c1C (centres unmarked) [compound 15] | 36 | – | – | 40 | 70 | 64 | > 500 | – | – | – | – | – |

Further lines, with some results ahead:

| decrease of MDA production in microsomes [3] [%] | SMILES | decrease in synaptosomal viability by toxic agent alone [1, 7] [%] | reduction in GSH levels by toxic agent alone [1, 7] [%] | increase in MDA formation in microsomes [2] [%] | preserved GSH levels in synaptosomes [1] [%] | viability at 100 µM [1] [%] | IC50 [4] [µM] | protective effect (neuroprotection) ([5]; 5 µM pre-treatment 1.5 h) [%] | protective effect (neuroprotection) ([5]; 10 µM pre-treatment 1.5 h) [%] | reduction of MDA production in mitochondria [6] [%] | protective effect (neuroprotection) ([5]; 20 µM pre-treatment 1.5 h) [%] | protective effect (neuroprotection) ([5]; 50 µM pre-treatment 1.5 h) [%] |
| --- | --- | --- | --- | --- | --- | --- | --- | --- | --- | --- | --- | --- |
| 26 | CCOC(=O)c1cc(-c2ccc(Br)cc2)n(C(Cc2c[nH]c3ccccc23)C(=O)N/N=C/c2ccc(NC(C)=O)cc2)c1C (centres unmarked) [compound 9] | – | – | 38 | 60 | 78 | > 500 | 47 | 52 | – | – | – |
| 35 | CCOC(=O)c1cc(-c2ccc(Br)cc2)n(C(Cc2c[nH]c3ccccc23)C(=O)N/N=C/c2ccc([N+](=O)[O-])o2)c1C (centres unmarked) [compound 11] | – | – | 41 | 60 | 69 | 264 | – | – | 41 | – | – |
| 37 | CCOC(=O)c1cc(-c2ccc(Br)cc2)n(C(Cc2c[nH]c3ccccc23)C(=O)N/N=C/c2ccc3ccccc3c2)c1C (centres unmarked) [compound 14] | – | – | 39 | 70 | 60 | > 500 | 33 | 51 | – | – | – |

Reference: article PMC12072147, “Antioxidant and Neuroprotective Properties of Selected Pyrrole-Containing Azomethine Compounds in Neurotoxicity Models In Vitro” (International Journal of Molecular Sciences, 2025)
